Measurements published in patent US9987243B2, “Use of trans-palmitoleate in identifying and treating metabolic disease” (Trustees of Tufts College, priority 2010, dated 2018).
Marks after values point to notes of the source that are not given here.

Experiments:
[1] = tested on: 3,736 U.S. men and women in the Cardiovascular Health Study; experiment: Cardiovascular Health Study: multivariable-adjusted relationships of plasma phospholipid trans-palmitoleate with metabolic risk factors; type: in vivo, human; settings: for BMI / Blood Pressure: Diastolic / Blood Pressure: Systolic / Fasting insulin / HOMA-IR / Total/HDL-C ratio / Waist circumference: adjusted mean
Experimental: The present inventors investigated relationships of circulating trans-palmitoleate levels with metabolic risk and incident diabetes mellitus among 3,736 U.S. men and women in the prospective Cardiovascular Health Study. Plasma phospholipid fatty acids, anthropometry, blood lipids, inflammatory markers, and glucose-insulin levels were measured at baseline using standardized methods. Independent determinants of trans-palmitoleate and relationships of trans-palmitoleate with metabolic risk factors were investigated using multivariable-adjusted linear regression. Relationships with incident diabetes (304 incident cases) were investigated using Cox proportional-hazards. Validation for metabolic risk factors was performed in a second independent cohort of 327 generally healthy women.
CHS design and recruitment have been described. Fried et al., 1 Ann. Epidemiol. 263 (1991). Briefly, 5,201 ambulatory, non-institutionalized adults age ≥65 were selected randomly and then enrolled in 1989 to 1990 from Medicare eligibility lists in 4 U.S. communities (Forsyth County, NC; Sacramento County, CA; Washington County, MD.; Allegheny County, PA); an additional 687 black participants were recruited similarly and enrolled in 1992. Among all eligible adults contacted, 57% agreed to enroll. Baseline in-clinic evaluations included standardized physical examination, diagnostic testing, laboratory evaluation, and questionnaires on health status, medical history, and cardiovascular and lifestyle risk factors. Each center's institutional review committee approved the study; all participants provided informed written consent.
Plasma phospholipid fatty acids were measured in 3,736 individuals using 1992 blood samples, considered to be the baseline for all present analyses. This included 3,238 participants randomly selected from individuals with available blood samples in 1992 and an additional 498 participants from a prior case-control study of myocardial infarction. All analyses accounted for this within-cohort sampling using inverse-probability-of-sampling weights. Plasma phospholipids were selected as an excellent marker of longer-term (4-8 week) circulating fatty acids, with similar responses as levels in erythrocyte membranes. Blood was drawn after a 12-hr fast, stored (−70° C.), and shipped on dry ice for long-term centralized storage (−80° C.). Under these conditions plasma phospholipid fatty acids are stable long-term, and in prior studies we observed no degradation, lipolysis, or oxidation after 10 years storage. Measurements were performed at the Fred Hutchinson Cancer Research Center, providing quantitative measurement of 45 fatty acids as percent of total fatty acids. Total lipids were extracted from plasma using methods of Folch, and phospholipids separated from neutral lipids by one-dimensional TLC. Fatty-acid-methyl-ester (FAME) samples were prepared by direct transesterification using methods of Lepage and separated using gas chromatography (Agilent5890 gas-chromatograph-FID-detector; Supelco fused-silica 100 m capillary column SP-2560; initial 160° C. 16 min, ramp 3.0° C./min to 240° C., hold 15 min). Identification, precision, and accuracy were continuously evaluated using model mixtures of known FAMEs and established in-house controls, with identification confirmed by GC-MS at USDA (Peoria, Ill.) or for trans-fats by silver-ion TLC. CVs were 2.5% for trans-palmitoleate and <3% for most fatty acids.
At study-clinic examinations, risk factors were measured by trained personnel. Fried et al., 1991. Anthropometric measures including weight, height, and waist circumference were collected using standard procedures and used to calculate body mass index (BMI). Fasting total cholesterol, HDL-C, and triglycerides were measured according to CDC methods. LDL-C was calculated according to Friedewald equation, excluding individuals with hypertriglyceridemia. […]

[2] = tested on: 327 generally healthy women in the Nurses' Health Study; experiment: Nurses' Health Study validation cohort: erythrocyte and plasma trans-palmitoleate versus metabolic risk factors; type: in vivo, human; settings: multivariable-adjusted level across quartiles
Experimental: For independent validation, we evaluated the association of trans-palmitoleate measured in erythrocyte membranes and plasma (Sun et al., 88 Am. J. Clin. Nutr, 216 (2008)), with metabolic risk factors in a cohort of 327 generally healthy women, age=60.4±6.1 years, in the Nurses' Health Study (NHS). Relationships were evaluated for HDL-C, total:HDL-C, interleukin-6, CRP, and hemoglobinAlc. Because many samples were nonfasting, triglycerides and LDL-C were not evaluated; the number of subjects was too small to evaluate incident diabetes. Multivariable models were adjusted for age, smoking, physical activity, alcohol intake, family history, hypertension, hormone use, fasting status, and dietary carbohydrate, protein, polyunsaturated fats, saturated fat, dietary fiber, and total energy. We also evaluated correlations of trans-palmitoleate levels in plasma vs. erythrocytes in NHS (Spearman correlation[r]=0.74); and in phospholipids vs. triglycerides in CHS (n=104; r=0.54).

[3] = across quintiles, further adjusted for adiposity
[4] = across quintiles, multivariable-adjusted
[5] = quintile I (median 0.13% of total fatty acids)
[6] = quintile II (median 0.16% of total fatty acids)
[7] = quintile III (median 0.18% of total fatty acids)
[8] = quintile IV (median 0.21% of total fatty acids)
[9] = quintile V (median 0.25% of total fatty acids)
[10] = erythrocyte trans-palmitoleate, first value
[11] = erythrocyte trans-palmitoleate, second value
[12] = plasma trans-palmitoleate, first value
[13] = plasma trans-palmitoleate, second value

For `CCCCCC/C=C/CCCCCCCC(=O)O` [trans-palmitoleate, trans-C16:1n7-palmitoleic acid], the association with fibrinogen ([1]; P=0.006, limited to lower levels in the lowest quintile only) was “higher fibrinogen”, the “difference in CRP across quintiles” value [1, 3] was −13.8% and the “difference in HDL-C across quintiles” value [1, 3] was “+1.9%”. For the same compound, the “difference in fasting insulin across quintiles” value [1, 3] was −13.3%, the “difference in insulin resistance assessed by HOMA-IR across quintiles” value [1, 3] was −16.7% and the “difference in total:HDL-C ratio across quintiles” value [1, 3] was −4.7%. For the same compound, the “difference in triglycerides across quintiles” value [1, 3] was −19.0%, the “difference in BMI across quintiles” value [1, 4] was −1.8% and the “difference in waist circumference across quintiles” value [1, 4] was −1.8%. The “association with LDL-C, fasting glucose, or BP” value ([1]; multivariable-adjusted) was “not associated”, the BMI [1, 5] was 26.7 kg/m^2 and the “Blood Pressure: Diastolic” value [1, 5] was 71 mmHg. For the same compound, the “Blood Pressure: Systolic” value [1, 5] was 137 mmHg, the Fasting insulin [1, 5] was 11.3 mU/l and the HOMA-IR [1, 5] was 3.0 units. It also gave a Total/HDL-C ratio [1, 5] of 4.3, a Waist circumference [1, 5] of 97.7 cm and a BMI [1, 6] of 27.0 kg/m^2. The “Blood Pressure: Diastolic” value [1, 6] was 71 mmHg, the “Blood Pressure: Systolic” value [1, 6] was 136 mmHg and the Fasting insulin [1, 6] was 11.0 mU/l. For the same compound, the HOMA-IR [1, 6] was 2.9 units, the Total/HDL-C ratio [1, 6] was 4.3 and the Waist circumference [1, 6] was 98.4 cm. The BMI [1, 7] was 26.8 kg/m^2, the “Blood Pressure: Diastolic” value [1, 7] was 70 mmHg and the “Blood Pressure: Systolic” value [1, 7] was 136 mmHg. For the same compound, the Fasting insulin [1, 7] was 10.7 mU/l, the HOMA-IR [1, 7] was 2.8* units and the Total/HDL-C ratio [1, 7] was 4.2. For the same compound, the Waist circumference [1, 7] was 97.2 cm, the BMI [1, 8] was 26.9 kg/m^2 and the “Blood Pressure: Diastolic” value [1, 8] was 71 mmHg. The “Blood Pressure: Systolic” value [1, 8] was 136 mmHg, the Fasting insulin [1, 8] was 10.2† mU/l and the HOMA-IR [1, 8] was 2.7† units. For the same compound, the Total/HDL-C ratio [1, 8] was 4.1†, the Waist circumference [1, 8] was 97.4 cm and the BMI [1, 9] was 26.2 kg/m^2. The “Blood Pressure: Diastolic” value [1, 9] was 71 mmHg, the “Blood Pressure: Systolic” value [1, 9] was 136 mmHg and the Fasting insulin [1, 9] was 9.8‡ mU/l. The HOMA-IR [1, 9] was 2.5‡ units, the Total/HDL-C ratio [1, 9] was 4.1† and the Waist circumference [1, 9] was 96.0* cm. The CRP [2, 10] was 3.3 mg/L, the hemoglobinAlc [2, 10] was 5.92 and the “interleukin-6 (IL-6)” value [2, 10] was 2.3 pg/mL. The “total:HDL-C” value [2, 10] was 4.21, the CRP [2, 11] was 2.1 mg/L and the hemoglobinAlc [2, 11] was 5.66. For the same compound, the “interleukin-6 (IL-6)” value [2, 11] was 1.8 pg/mL, the “total:HDL-C” value [2, 11] was 3.87 and the HDL-C [2, 12] was 56.5 mg/dL. The hemoglobinAlc [2, 12] was 5.88%, the “total:HDL-C” value [2, 12] was 4.28 and the HDL-C [2, 13] was 61.7 mg/dL. The hemoglobinAlc [2, 13] was 5.64% and the “total:HDL-C” value [2, 13] was 3.63.
